# Reference: article PMC5750217 (Nature Communications, 2018)
# Values joined by “and” are separate entries in the source; they are usually repeats but may differ in a detail not shown here. Equal entries are not always repeated.
# What was measured:
# [1] = molecular target: T1, wild-type GltPh (Pyrococcus horikoshii, UniProt O59010); conditions: published values, cited from earlier work
# T1 construct: hexa-His (N, cleaved yes); made in house; host or cells: Escherichia coli Top10 (pBAD)
# T1 sequence (O59010 1-425): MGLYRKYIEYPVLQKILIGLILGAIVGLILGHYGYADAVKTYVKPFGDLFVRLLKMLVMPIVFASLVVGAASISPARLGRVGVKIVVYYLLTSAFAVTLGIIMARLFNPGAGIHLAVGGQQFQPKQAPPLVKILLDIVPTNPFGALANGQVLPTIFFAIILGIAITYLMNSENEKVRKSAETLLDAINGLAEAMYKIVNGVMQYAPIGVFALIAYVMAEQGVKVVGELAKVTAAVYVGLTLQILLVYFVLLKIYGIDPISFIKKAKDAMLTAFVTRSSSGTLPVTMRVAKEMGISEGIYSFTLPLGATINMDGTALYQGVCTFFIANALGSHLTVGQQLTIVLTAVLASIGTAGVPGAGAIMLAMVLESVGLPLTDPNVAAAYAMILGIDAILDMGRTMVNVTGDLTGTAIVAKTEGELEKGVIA
# [2] = molecular target: T2, GltPh-R397C (Pyrococcus horikoshii, UniProt O59010, R397C); assay: biochemical; assay type: binding; conditions: GltPh-R397C
# T2 construct: hexa-His (N, cleaved yes); made in house; host or cells: Escherichia coli Top10 (pBAD)
# T2 sequence (O59010 whole entry R397C): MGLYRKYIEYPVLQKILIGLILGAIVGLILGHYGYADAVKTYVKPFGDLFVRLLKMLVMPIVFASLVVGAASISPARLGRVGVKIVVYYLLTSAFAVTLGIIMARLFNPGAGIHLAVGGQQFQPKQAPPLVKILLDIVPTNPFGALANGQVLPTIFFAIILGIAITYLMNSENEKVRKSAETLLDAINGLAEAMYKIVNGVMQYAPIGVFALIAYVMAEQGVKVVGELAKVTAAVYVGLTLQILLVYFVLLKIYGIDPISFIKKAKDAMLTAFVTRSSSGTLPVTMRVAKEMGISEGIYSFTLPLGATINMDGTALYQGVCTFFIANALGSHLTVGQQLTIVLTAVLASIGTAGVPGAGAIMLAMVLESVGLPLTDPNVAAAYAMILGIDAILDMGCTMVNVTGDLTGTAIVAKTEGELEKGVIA
# Protocol: Fluorescence-based binding assays were performed by titrating purified protein (50 μg per ml) in 20 mM HEPES/Tris, pH 7.4, 200 mM choline chloride, 0.4 mM n-dodecyl^−β-D-maltopyranoside, 200 nM styryl fluorescent dye RH421 (Invitrogen, Inc., Grand Island, NY) with NaCl, L-ser, L-cys or benzylcysteine at 25 °C[51]. The RH421 dye was excited at 532 nm, and the fluorescence was collected at 628 nm using a QuantaMaster (Photon International Technology, Inc., Edison, NJ). Fluorescence emissions were measured after at least 10 min equilibration to ensure a stabilised signal. The data were analysed using GraphPad Prism version 6.0 for Mac (GraphPad Software, La Jolla California USA). Fractional fluorescence changes were normalised to maximal fluorescence changes, then plotted as a function of ligand concentration and fitted to the Hill equation. All the experiments were performed at least in triplicate.
# Analysis of ligand binding data. The voltage sensitive amphipathic dye RH421 reports on Na+ binding to purified GltPh protein in detergent3. RH421 was used to follow Na+ binding to GltPh‐R397C protein either alone or in reactions coupled to binding of amino acids. […]
# Coupled ions and amino acid binding was probed by titrating amino acids to the GltPh‐R397C protein in the presence of 10 – 100 mM Na+ ions. The obtained isotherms were analyzed to estimate an apparent number of Na+ ions coupled to binding of the amino acids.
# Raw data were first normalized by the initial fluorescence of RH421 and plotted as fraction of fluorescence change (Supplementary […]
# total amount of dye and detergent in the assay buffer.
# To take into account significant amino acid‐independent Na+ binding, the sets of binding isotherms obtained at variable Na+ concentrations were fitted globally to a simplified binding equation: […]
# KD,a is the combined dissociation constant for coupled Na+ and ligand binding and n is the apparent number of coupled ions. Fraction of the protein bound to either Na+ ions alone or to the ions and the […]
# Fraction of the protein already bound to Na+ ions before ligand addition is: […]
# Fractional fluorescence change Y is fitted to an equation: […]
# where Y0 and ∆Y are, respectively, baseline and the signal difference between fully bound and apo […]
# KD,a and n were fitted globally for each ligand. Y0 and ∆Y were adjusted for each isotherm independently. […]
# individual isotherm to a standard Hill equation, plotted the apparent dissociation constants as functions of Na+ concentrations and compared the values to those predicted using the parameters from the global fits (Supplementary Figure 8).
# [3] = molecular target: T3, GltPh-G396S/R397C (Pyrococcus horikoshii, UniProt O59010, G396S/R397C); assay: biochemical; assay type: biochemical; conditions: GltPh-R397C/G396S; 10 µM L-[3H]serine, 100-fold excess unlabelled amino acid
# T3 construct: hexa-His (N, cleaved yes); made in house; host or cells: Escherichia coli Top10 (pBAD)
# T3 sequence (O59010 whole entry G396S/R397C): as the sequence (O59010 whole entry R397C) above, with G396S counted along it
# Protocol: Mutant and wild-type GltPh with an amino-terminal hexa-His tag were expressed in Escherichia coli Top10 cells (Invitrogen), which were grown in Luria broth medium at 37 °C. Ampicillin was added to a final concentration of 100 μg per ml. To induce expression of GltPh, 0.1% L-arabinose was added when cells reached an optical density of 0.6 at 660 nm, and cells were harvested 4 h post induction. Membranes were isolated, and then solubilised with n-dodecyl-β-D-maltopyranoside (C12M, Anatrace). Histidine containing proteins were purified using Ni^2+−nitrilotriacetic acid resin (Qiagen). The histidine tag was subsequently removed from GltPh by digestion with thrombin (10 U per mg protein) and the protein further purified on a Superdex 200 size exclusion column, where the detergent was exchanged to n-decyl-β-D-maltopyranoside (C10M, Anatrace).
# Pure protein was reconstituted into liposomes composed of 75% E. coli Polar Lipid Extract and 25% 1-palmitoyl-2-oleoyl-sn-glycero-3 ^−phopshocholine (Avanti Polar Lipids). Lipids were mixed, dried under nitrogen and resuspended in internal buffer (100 mM KCl, 20 mM HEPES-Tris pH 7.5) using brief sonication (Laboratory Supplies Co.). The lipid suspension was frozen in liquid nitrogen and thawed at room temperature several times. Liposomes were formed by extrusion through 400 nm polycarbonate membranes (Avanti Polar Lipids) and were treated with Triton X-100 at a 0.5:1 (w/w) detergent to lipid ratio prior to the addition of protein at 0.25 μg protein per mg lipid. The protein/lipid mixture was left at room temperature for 30 min before detergent was removed using SM2 Biobeads (BioRad). The mixture was then incubated with gentle agitation, with four consecutive batches of Biobeads (80 mg per ml). Proteoliposomes were concentrated by centrifugation at 150,000 g for 30 min, resuspended at 100 mg lipid per ml and either used immediately or flash-frozen in liquid nitrogen and stored at −80 °C.
# Mutant and wild-type GltPh-mediated transport of radiolabelled substrate was assayed by diluting proteoliposomes (100 mg lipid per ml) 133-fold into uptake buffer (100 mM NaCl, 20 mM HEPES-Tris pH 7.5, 1 μM valinomycin, 100 nM–1 µM L-[^3H]substrate) pre-warmed to 30 °C. At each time point, a 200 µl aliquot was removed and diluted 10-fold into ice-cold quench buffer (100 mM LiCl, 20 mM HEPES-Tris pH 7.5), followed by immediate filtration over nitrocellulose filters (0.22 μm pore size, Millipore). The filters were washed with ice-cold quench buffer and assayed for radioactivity using a Trilux beta counter (PerkinElmer). To establish substrate concentration–response curves, extraliposomal L-[^3H]substrate was varied between 500 nM and 100 µM, maintaining NaCl concentrations at 300 mM. For inhibitor concentration–response curves, for wild-type GltPh 100 nM L-[^3H]aspartate, and for mutant GltPh 1 µM L-[^3H]serine, was co-applied with varying inhibitor concentrations. Background levels of uptake were measured by diluting proteoliposomes into internal buffer (100 mM KCl, 20 mM HEPES-Tris pH 7.5) containing 1 µM of valinomycin and the indicated concentrations of L-[^3H]substrate.
# [4] = molecular target: the molecule itself; assay: crystal structure; hanging-drop vapour diffusion at 4 °C, protein ~7 mg per ml in n-decyl-maltopyranoside, 15-21% PEG1000, 0.1 M LiSO4, 0.05 M citric acid, 0.05 M Na2HPO4; space group P61; refined with threefold NCS restraints; with L-aspartate (wild type) or 5 mM L-cysteine, L-serine or benzylcysteine (R397C)
molecule,measurement,setting,value
[Na+] [Na+],Kd,"[1]; ref Reyes et al., 2013, read-out: KD,Na of Na+ binding",99.3 mM
same,nNa of Na+ binding,"[1]; ref Reyes et al., 2013",1.6
same,Hill coefficient nNa of Na+ binding in the absence of amino acids,[2],1.2 and 1.2 ± 0.1
same,Kd,"[2]; Hill fit, read-out: KD,Na of Na+ binding in the absence of amino acids",38 mM
CSCC[C@H](N)C(=O)O [L-methionine],Reduction of L-[3H]serine transport by unlabelled competitor (in words),[3],to a similar extent
CC(C)[C@H](N)C(=O)O [L-valine],Reduction of L-[3H]serine transport by unlabelled competitor (in words),[3],to a similar extent
"GltPh-R397C (natural protein, Pyrococcus horikoshii, GltPh of Pyrococcus horikoshii, wild-type background, with the point mutation R397C; Crystallised with L-cysteine, L-serine or benzylcysteine (5 mM each); source: E. coli Top10, purified (Ni-NTA, thrombin digestion, Superdex 200 SEC in detergent); not shown: His6, N-terminal, cleaved) MGLYRKYIEYPVLQKILIGLILGAIVGLILGHYGYADAVKTYVKPFGDLFVRLLKMLVMPIVFASLVVGAASISPARLGRVGVKIVVYYLLTSAFAVTLGIIMARLFNPGAGIHLAVGGQQFQPKQAPPLVKILLDIVPTNPFGALANGQVLPTIFFAIILGIAITYLMNSENEKVRKSAETLLDAINGLAEAMYKIVNGVMQYAPIGVFALIAYVMAEQGVKVVGELAKVTAAVYVGLTLQILLVYFVLLKIYGIDPISFIKKAKDAMLTAFVTRSSSGTLPVTMRVAKEMGISEGIYSFTLPLGATINMDGTALYQGVCTFFIANALGSHLTVGQQLTIVLTAVLASIGTAGVPGAGAIMLAMVLESVGLPLTDPNVAAAYAMILGIDAILDMGCTMVNVTGDLTGTAIVAKTEG",stoichiometry N,[4],3
"wild-type GltPh, aspartate transporter from Pyrococcus horikoshii (natural protein, GltPh, Na+-dependent aspartate transporter of the archaeon Pyrococcus horikoshii; wild-type background (not the seven-histidine mutant CAT-7); Crystallised with L-aspartate and Na+ in n-decyl-maltopyranoside; Three protomers in the asymmetric unit (threefold NCS); also called Wt; source: E. coli Top10, purified (Ni-NTA, thrombin digestion, Superdex 200 SEC in detergent); not shown: His6, …) MGLYRKYIEYPVLQKILIGLILGAIVGLILGHYGYADAVKTYVKPFGDLFVRLLKMLVMPIVFASLVVGAASISPARLGRVGVKIVVYYLLTSAFAVTLGIIMARLFNPGAGIHLAVGGQQFQPKQAPPLVKILLDIVPTNPFGALANGQVLPTIFFAIILGIAITYLMNSENEKVRKSAETLLDAINGLAEAMYKIVNGVMQYAPIGVFALIAYVMAEQGVKVVGELAKVTAAVYVGLTLQILLVYFVLLKIYGIDPISFIKKAKDAMLTAFVTRSSSGTLPVTMRVAKEMGISEGIYSFTLPLGATINMDGTALYQGVCTFFIANALGSHLTVGQQLTIVLTAVLASIGTAGVPGAGAIMLAMVLESVGLPLTDPNVAAAYAMILGIDAILDMGRTMVNVTGDLTGTAIVAKTEG",binding result,[4],binds
